Where two headings read alike, the source gives them in different places.
Experiments:
[1] = tested on: formaldehyde induced nociceptive behaviour; assay: Formaldehyde test in mice, second (late) phase; type: in vivo, mouse; conditions: 1 mg/kg body weight po; mouse; read-out: inhibition formaldehyde test (n = 10)
[2] = target: T1, vanilloid receptor 1 (VR1/TRPV1) of the rat species (Rattus norvegicus, UniProt O35433); assay: FLIPR Ca2+ influx assay on rat dorsal root ganglia cells (pharmacological method I); type: cell-based; conditions: table 4, capsaicin
T1 construct: The spinal column is removed from decapitated rats; from tissue; host or cells: primary cells dissociated from rat dorsal root ganglia
Summary of the method: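 Primary rat dorsal root ganglion cells loaded with 2 μM Fluo-4, Ca2+ influx read on FLIPR as peak fluorescence. Triplicates, at least 3 independent experiments.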

vanilloid receptor (VR1) = target: T2, vanilloid receptor (VR1) (Homo sapiens, UniProt Q8NER1); assay: FLIPR Ca2+ influx assay on CHO K1 cells transfected with the VR1 gene (pharmacological method II); type: cell-based; conditions: table 4; capsaicin; read-out: Ki (human) Cap.
T2 construct: expressed in transfected cells; host or cells: CHO K1 cells (ECACC), stably transfected

VR1/TRPV1 receptor = VR1/TRPV1 receptor (Homo sapiens, UniProt Q8NER1); assay: IC50 (human) after pH stimulus; type: cell-based; conditions: for IC50: table 4
[3] = tested on: capsaicin induced hypothermie; assay: Hypothermie assay in the mouse (capsaicin induced hypothermie); type: in vivo; conditions: 0.3 mg/kg body weight po; mouse; read-out: inhibition hypothermie (n = 5)
Experimental: V. Hypothermie Assay an der Maus
Male NMRI mice (weight 25-35 gram, supplier IFFA CREDO, Bruxelles, Belgium) are used in the hypothermie assay. The animals are kept under standardized conditions: light/darkness interval (6:00 to 18:00 light; 18:00 to 6:00 Uhr darkness), room temperature 19-22° C., relative humidity 35-70%, 15 times per hour change of compartment air, airflow <0.2 m/sec. The animals were fed on a standardized diet (ssniff diet, ssniff Spezialdiäten GmbH, Soest, Germany) and tap water. Water and diet were detracted during the experiment. All animals were used once in the experiment. The animals were allowed to adapt to the experimental conditions for at least 5 days.
The acute application of capsaicin (VR-1 agonist) leads to a decrease of the core body temperature in rat and mice via stimulation of heat sensors. Only compounds which act as specific VR-1-receptor antagonists can antagonize the capsaicin induced hypothermie. In contrast, morphine induced hypothermie is not antagonized by VR-1 antagonists. Thus, this experiment is suitable for the determination of compounds that act as VR1-antagonists via their effect on the core body temperature.
For the determination of the core body temperature a digital thermometer was used (Thermalert TH-5, physitemp, Clifton N.J., USA). The measuring head was inserted into the rectum.
The individual basis value is determined by measuring the body temperature twice in an interval of about half an hour. […] […] The test compound is given 10 min (i.v.) or 15 min (p.o.), respectively, before application of capsaicin. The body temperature is determined 7.5/15 and 30 min after application of capsaicin (i.v.+i.p.) or 15/30/60/90/120 min after application of capsaicin (p.o.+i.p.), respectively. In addition, another group of mice is only given the test compound or a vehicle control.
The measuring points are given as average values±S.E.M. of the absolute values. The antagonistic effect is given in percent of inhibition of capsaicin induced hypothermie.

Sequence of VR1/TRPV1 receptor (Q8NER1 whole entry): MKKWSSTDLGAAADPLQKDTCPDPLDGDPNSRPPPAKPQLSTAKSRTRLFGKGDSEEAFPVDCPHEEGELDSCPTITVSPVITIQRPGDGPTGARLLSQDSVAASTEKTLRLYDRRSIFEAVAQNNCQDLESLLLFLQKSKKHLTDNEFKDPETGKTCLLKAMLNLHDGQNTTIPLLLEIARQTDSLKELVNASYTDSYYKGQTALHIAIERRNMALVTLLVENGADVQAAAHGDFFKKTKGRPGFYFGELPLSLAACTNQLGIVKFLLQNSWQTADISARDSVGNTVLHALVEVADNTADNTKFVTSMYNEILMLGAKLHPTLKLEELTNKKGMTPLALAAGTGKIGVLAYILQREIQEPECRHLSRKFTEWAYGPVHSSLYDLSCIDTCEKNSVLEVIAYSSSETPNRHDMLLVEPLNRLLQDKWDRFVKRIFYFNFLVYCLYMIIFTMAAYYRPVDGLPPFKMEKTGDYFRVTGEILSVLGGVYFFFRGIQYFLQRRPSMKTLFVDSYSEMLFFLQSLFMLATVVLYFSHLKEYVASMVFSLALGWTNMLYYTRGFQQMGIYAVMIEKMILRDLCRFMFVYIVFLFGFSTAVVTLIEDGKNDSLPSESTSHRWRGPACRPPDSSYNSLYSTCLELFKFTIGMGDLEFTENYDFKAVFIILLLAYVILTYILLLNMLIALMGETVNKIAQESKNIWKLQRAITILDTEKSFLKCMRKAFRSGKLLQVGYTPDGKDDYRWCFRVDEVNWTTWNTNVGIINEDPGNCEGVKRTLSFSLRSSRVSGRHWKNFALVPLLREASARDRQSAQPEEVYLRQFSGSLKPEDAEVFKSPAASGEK
T2 sequence (Q8NER1 whole entry): as above
T1 sequence (O35433 whole entry): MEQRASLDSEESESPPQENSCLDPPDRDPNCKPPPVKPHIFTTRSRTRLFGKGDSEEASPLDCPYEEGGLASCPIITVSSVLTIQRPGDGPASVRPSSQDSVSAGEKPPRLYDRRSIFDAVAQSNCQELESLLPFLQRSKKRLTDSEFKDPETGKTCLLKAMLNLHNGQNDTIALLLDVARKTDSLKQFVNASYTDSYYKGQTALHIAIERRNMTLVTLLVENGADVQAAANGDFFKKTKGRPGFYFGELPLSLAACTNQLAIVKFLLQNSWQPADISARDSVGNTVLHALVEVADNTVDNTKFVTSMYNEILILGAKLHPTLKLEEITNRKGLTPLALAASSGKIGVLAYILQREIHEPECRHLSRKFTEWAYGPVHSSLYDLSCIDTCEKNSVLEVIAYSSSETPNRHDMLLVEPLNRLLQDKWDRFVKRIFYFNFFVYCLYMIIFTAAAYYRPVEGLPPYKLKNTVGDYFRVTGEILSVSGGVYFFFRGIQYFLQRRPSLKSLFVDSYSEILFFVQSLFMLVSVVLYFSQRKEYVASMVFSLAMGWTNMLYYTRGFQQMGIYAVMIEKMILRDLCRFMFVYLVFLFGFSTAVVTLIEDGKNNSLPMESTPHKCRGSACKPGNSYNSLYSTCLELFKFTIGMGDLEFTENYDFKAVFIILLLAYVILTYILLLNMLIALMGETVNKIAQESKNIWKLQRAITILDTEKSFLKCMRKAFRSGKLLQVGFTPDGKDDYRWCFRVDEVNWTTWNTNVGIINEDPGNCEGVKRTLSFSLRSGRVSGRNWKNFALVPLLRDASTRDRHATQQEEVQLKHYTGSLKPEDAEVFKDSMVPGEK

Compound	inhibition in vivo at 1 mg/kg [1] [%]	Ki ([2]; read-out: Ki (rat) Cap.) [nM]	Ki (vanilloid receptor (VR1)) [nM]	IC50 (VR1/TRPV1 receptor) [nM]	inhibition in vivo at 0.3 mg/kg [3] [%]	Ki ([2]; Ki (rat) Cap.) [nM]	inhibition at 10 µM (VR1/TRPV1 receptor; @ 10 μM, read-out: inhibition in percent, IC50 (human) after pH stimulus) [%]
CC(C(=O)NCc1ccc(C(F)(F)F)nc1-c1cccc(F)c1)c1ccc(NS(C)(=O)=O)c(F)c1 (stereo not shown) [Compound 148]	46	–	–	–	–	–	–
CC(C(=O)NCc1ccc(C(F)(F)Cl)nc1OCc1ccccn1)c1ccc(NS(C)(=O)=O)c(F)c1 (stereo not shown) [Compound 182]	8	–	–	–	–	–	–
Cc1cc(C(C)C(=O)NCc2ccc(C(F)(F)F)nc2N2CCCCC2)ccc1NS(C)(=O)=O (stereo not shown) [Compound 127]	25	–	–	–	–	–	–
CC(C(=O)NCc1ccc(C(F)(F)F)nc1N1CC=CCC1)c1ccc(NS(C)(=O)=O)c(F)c1 (stereo not shown) [Example 139, 2-(3-fluoro-4-methylsulfonamido-phenyl)-N-(6′-trifluoromethyl-3,6-dihydro-2H-[1,2′]bipyridinyl-3′-ylmethyl)-propionamide]	–	0.9	0.3	12.1	43	–	–
C[C@@H](C(=O)NCc1ccc(C(F)(F)F)cc1N1CCCCC1)c1ccc(NS(C)(=O)=O)c(F)c1 [Example 32, (R)-2-(3-fluoro-4-(methylsulfonamido)phenyl)-N-(2-(piperidin-1-yl)-4-(trifluoromethyl)benzyl)propanamide]	–	2.6	1.7	135	55	–	–
CC(C(=O)NCc1ccc(C(F)(F)F)nc1N1CCC(F)CC1)c1ccc(NS(C)(=O)=O)c(F)c1 (stereo not shown) [Example 138, 2-(3-fluoro-4-methylsulfonamido-phenyl)-N-(4-fluoro-6′-trifluoromethyl-3,4,5,6-tetrahydro-2H-[1,2′]bipyridinyl-3′-ylmethyl)-propionamide]	–	1.2	0.5	19.8	0	–	–
CC1CCN(c2nc(C(F)(F)Cl)ccc2CNC(=O)C(C)c2ccc(NS(C)(=O)=O)c(F)c2)CC1 (stereo not shown) [Example 131]	–	0.4	0.3	5.9	26	–	–
CCCCSc1nc(C(F)(F)F)ccc1CNC(=O)C(C)c1ccc(NS(C)(=O)=O)c(F)c1 (stereo not shown) [Example 122]	–	0.6	0.7	40.4	33	–	–
COc1ccc(N2CCN(c3nc(C(F)(F)F)ccc3CNC(=O)C(C)c3ccc(NS(C)(=O)=O)c(F)c3)CC2)cc1 (stereo not shown) [Example 221, 2-(3-fluoro-4-methylsulfonamido-phenyl)-N-{2-[4-(4-methoxy-phenyl)-piperazin-1-yl]-6-trifluoromethyl-pyridin-3-ylmethyl}-propionamide]	–	1.9	2.5	44.5	18	–	–
CCCCCCOc1nc(C(F)(F)F)ccc1CNC(=O)[C@@H](C)c1ccc(NS(C)(=O)=O)c(F)c1 [Example 93, (S)-2-(3-fluoro-4-methylsulfonamido-phenyl)-N-(2-hexyloxy-6-trifluoromethyl-pyridin-3-ylmethyl)-propionamide]	–	–	0.4	12.3	4	0.2	–
C[C@@H](C(=O)NCc1ccc(C(F)(F)F)nc1-c1ccc(F)c(Cl)c1)c1ccc(NS(C)(=O)=O)c(F)c1 [Example 121, (R)-N-[2-(3-chloro-4-fluoro-phenyl)-6-trifluoromethyl-pyridin-3-ylmethyl]-2-(3-fluoro-4-methylsulfonamido-phenyl)-propionamide]	–	5.8	13.2	–	12	–	56
CC(C(=O)NCc1ccc(C(F)(F)F)cc1N1CCN(c2ccccc2)CC1)c1ccc(NS(C)(=O)=O)c(F)c1 (stereo not shown) [Example 216]	–	0.5	2	64.7	4	–	–
CCCCCOc1nc(C(F)(F)F)ccc1CNC(=O)C(C)c1ccc(NS(C)(=O)=O)c(F)c1 (stereo not shown) [Example 225, 2-(3-fluoro-4-methylsulfonamido-phenyl)-N-(2-pentyloxy-6-trifluoromethyl-pyridin-3-ylmethyl)-propionamide]	–	0.5	0.7	27.3	20	–	–

— patent publication US8710233B2 (Gruenenthal GmbH, priority 2005, dated 2014)
